In publication PMC7904827 (Scientific Reports, 2021):
Where a name gives a salt, the structure may show the parent alone. Read-outs that look alike come from different tables or passages of the source. One block for each compound: values may come before it.

Legend:
[1] = set-up: method as in PMID 29273587; settings: cited from earlier work
[2] = test system: neonatal ventricular cardiomyocytes (NVCMs); settings: same assay; cited from earlier work
[3] = ICRF-193 release from the prodrugs during incubation in DMEM (thermomixer, UHPLC-MS/MS); format: in vitro ADME; settings: 100 µM, 37 °C
Description: All samples were spiked with the internal standards. DMEM or buffer (100 μL) was diluted with an ice-cold methanol/water mixture (20:80, v/v), mixed and analyzed. Plasma (50 μL) was precipitated with ice-cold methanol (1:5, v/v), mixed (20 s) and centrifuged (10 min, 10,000 rpm, 4 °C). NVCM pellets (4.8 × 10^6 cells) were precipitated with ice-cold methanol (250 μL), mixed (20 s), sonicated in a cold ultrasonic bath (75 s), mixed (30 s) and centrifuged (10 min, 10,000 rpm, 4 °C). The supernatants from the plasma and NVCM extractions were filtered (0.22 μm, PVDF) prior to analysis. For assay of the prodrugs, the samples were acidified with formic acid to a final concentration of 0.5%.
The samples were analyzed using two UHPLC instruments both coupled to a triple quadrupole mass spectrometer. […] Positive ionization mode was used in both methods. The analytical columns tested are characterized in the Supplementary materials.
The prodrugs (100 μM) were incubated (37 °C) in DMEM in a thermomixer (Thermomixer Comfort, Eppendorf, Germany) under gentle mixing (350 rpm) for 48 h.
From all of the above described experiments, samples were taken at predefined intervals, treated and immediately analyzed. All experiments were performed in four replicates, and the results are expressed as the mean ± SD.

[4] = test system: neonatal ventricular cardiomyocytes (NVCMs); test: Toxicity of the prodrugs alone in NVCMs (LDH release); format: cell-based, rat; set-up: key to LDH release, statistical significance compared to control: c - compared to control; P ≤ 0.01; settings: prodrug alone 1–100 µM, NVCMs; n.s. or c in Fig. S2
Description: (§1) After 3 h, DAU solution (1.2 µM) was added to the media. After another 3 h, the medium was replaced with new (drug-free) exposure medium, and the cardiomyocytes were then kept until the end of the experiment. In addition to cytoprotective properties, the toxicity of the studied agent was also examined; this experiment was performed as described above with only the DAU addition step omitted.
(§2) Forty-five hours after the last medium exchange, a sample of medium was taken from each well to assess lactate dehydrogenase (LDH) activity[27]–[29]. For details, see the Supplementary material.
(§3) 1.5 LDH activity evaluation
(§4) The control wells were treated with lysis buffer (0.1 M potassium phosphate, 1% Triton
(§5) X-100, 1 mM DTT, 2 mM EDTA; pH 7.8; 15 min; room temperature) to measure the total
(§6) cellular LDH level (sum of the activity in the control medium and the lysate). The activity of
(§7) LDH was assayed in Tris-HCl buffer (pH 8.9) containing 35 mM sodium lactate and 5 mM
(§8) NAD+. The rate of NAD+ reduction was monitored spectrophotometrically at 340 nm for 2 min.
(§9) The slope of the linear region and molar absorption coefficient e = 6.22*10 3 M/cm were used
(§10) to calculate the LDH activity, and the data were expressed as a percentage of total L DH activity. […]

[5] = test system: neonatal ventricular cardiomyocytes (NVCMs); test: In vitro cardioprotection bioassay against daunorubicin toxicity (LDH release); format: cell-based, rat; settings: 3 h preincubation, DAU 1.2 µM, LDH release after 48 h
Description: NVCMs were isolated in-house from 1- to 3-day-old Wistar rats as described previously. The use of animals and experimental protocols were approved by Charles University, Faculty of Pharmacy Animal Welfare Committee. All experiments were performed in accordance with Directive 2010/63/EU on the Protection of Animals Used for Scientific Purposes and in compliance with Animal Research: Reporting of In Vivo Experiments (ARRIVE) guidelines. Newly isolated cardiomyocytes were left for 40 h to form a monolayer of spontaneously beating cardiomyocytes in seeding medium (DMEM/F12 supplemented with 10% HS, 5% FBS, 4% PYR and 1% P/S), which was then replaced with culture medium (DMEM/F12 supplemented with 5% FBS, 4% PYR and 1% P/S). The medium was replaced again after 24 h for new culture medium.
as §1, §2, §3, §4, §5, §6, §7, §8, §9, §10

[6] = Approximate solubility in distilled water at room temperature; format: physicochemical; settings: for solubility: distilled water, room temperature
Description: The syntheses of the target prodrugs were performed according to a known three-step procedure with some modifications. Target prodrugs GK-667, GK-678 and GK-691 were obtained in 34%, 37% and 17% overall yields, respectively. […] The resulting solutions remained physically stable for at least two hours at room temperature.

[7] = In vivo pharmacokinetic study of GK-667 in rabbits, noncompartmental analysis; set-up: species or system rabbit
Description: GK-667 was freshly dissolved in saline (5 mg/mL) before each administration. New Zealand White male rabbits (n = 6, ∼3.8 kg) received GK-667 (5 mg/kg) administered as a single slow (2 min) intravenous dose bolus to the ear marginal vein. Blood (∼1 mL) was sampled from veins on the contralateral ear at selected time points after drug administration (5 min to 9 h) into BD Vacutainers (BD Biosciences, Plymouth, UK) containing lithium heparin. Collected blood samples were immediately centrifuged (2 min, 3000 rpm, 4 °C), and plasma samples were harvested directly.
Plasma samples taken 0 to 20 min after GK-667 administration were immediately processed by the addition of formic acid and precipitation with ice-cold methanol. The supernatants were then analyzed for all analytes, including the intact prodrug. This was essential to ensure the appropriate determination of highly labile GK-667 at the first sampling intervals, and the whole procedure was validated for this purpose. […] Thus, all following plasma samples were immediately shock-frozen in liquid nitrogen and stored at -80 °C until analysis.
For drug administration and blood sampling, light anesthesia was induced in rabbits with a mixture of ketamine (25 mg/kg, i.m.) and midazolam (2.5 mg/kg, i.m.); sedation was then maintained with midazolam when needed. The blood withdrawn from the animals was compensated with an appropriate volume of sterile saline. All in vivo experiments and procedures were approved and supervised by the Animal Welfare Committee of the Faculty of Medicine in Hradec Kralove (Charles University), and the experiments were performed in compliance with the ARRIVE guidelines.
Standard noncompartmental analysis was performed using Kinetica software (version 4.0, Thermo Fisher Scientific Inc., USA). The population parameter estimation for nonlinear mixed effect models was conducted using Monolix version 2019R2 software (Antony, France: Lixoft SAS, 2019, http://lixoft.com/products/monolix/). The stochastic approximation expectation maximization (SAEM) algorithm coupled with Markov Chain Monte Carlo (MCMC) without the use of approximations (linearization) was used for the estimation of the likelihood. For evaluation of the goodness-of-fit, the following plots were assessed: observed versus individual predicted concentrations, weighted residuals versus time and weighted residuals versus predictions. Individual parameter values were obtained as empirical Bayes estimates. A visual predictive check with 1000 simulated data sets was performed.

[8] = Process stability in untreated plasma; format: in vitro ADME, rabbit; settings: 23 °C, 20 min
Description: Linearity was tested within the concentration range of 0.2 – 100 μM for all compounds in DMEM, the buffer and plasma and 10-100 pmol/106cells in NVCMs (method I). For method II, the concentration ranges 0.01-15 μM and 0.01-1 μM were used for determination of ICRF-193 and ICRF-193met in plasma, respectively. Unweighted and weighted (1/x and 1/x2) linear regression was applied to obtain the best fitting calibration model. […]
(§11) Stability of the analytes was examined at low and high concentrations. Process s tability (n=3) in plasma was tested for 20 min at either laboratory temperature (23 °C) or on ice (4 °C, only for GK-667). Post-preparation stability was examined for 8 to 10 h in an autosampler (8 °C, n=3) for all treated matrices. […]

[9] = Post-preparation stability of the extracted analytes in autosampler (8 °C); format: physicochemical
Description: Linearity was tested within the concentration range of 0.2 – 100 μM for all compounds in DMEM, the buffer and plasma and 10-100 pmol/106cells in NVCMs (method I). For […]
Unweighted and weighted (1/x and 1/x2) linear regression was applied to obtain the best fitting calibration model.
Accuracy and precision were calculated at 4 levels (LLOQ, low, medium and high concentrations). Five quality control (QC) samples were used for all concentration levels. […]
as §11
plasma was tested at -80 °C and the freezing cycle was repeated twice (n=3). The buffer, DMEM, NVCMs and plasma samples containing GK -667 from in vitro studies and from first intervals of pharmacokinetic study (up to 20 min) w ere treated and analyzed immediately after […]

[10] = Freeze-thaw and storage stability in plasma at -80 °C; format: in vitro ADME, rabbit; settings: for % of initial concentration, 1st freeze-thaw cycle / % of initial concentration, 2nd freeze-thaw cycle: plasma, -80 °C
Description: ICRF-193 and ICRF-193met in plasma, respectively. Unweighted and weighted (1/x and 1/x2) linear regression was applied to obtain the best fitting calibration model. […]
as §11
plasma was tested at -80 °C and the freezing cycle was repeated twice (n=3). […]

[11] = Population pharmacokinetic analysis in rabbits; format: in vivo, rabbit; settings: population median
From the text: All model parameters of ICRF-193 and ICRF-193met could not be simultaneously estimated by stochastic approximation expectation maximization (SAEM) in one step. […] A maximum likelihood estimation was used to calculate the parameters CLmet, CLother, V4, and CLICRF-193met. For the remaining parameters of the parent-metabolite model (Fig. S5), a maximum a posteriori (MAP) estimation was adopted. The residual error in the population kinetic analysis was best described with a proportional model.
Standard noncompartmental analysis was performed using Kinetica software (version 4.0, Thermo Fisher Scientific Inc., USA). The population parameter estimation for nonlinear mixed effect models was conducted using Monolix version 2019R2 software (Antony, France: Lixoft SAS, 2019, http://lixoft.com/products/monolix/). […] For evaluation of the goodness-of-fit, the following plots were assessed: observed versus individual predicted concentrations, weighted residuals versus time and weighted residuals versus predictions. […]
Hydrolysis of GK-667 is very fast and the parent compound was essentially completely cleared from plasma within 10 min after injection. ICRF-193 was quantitatively dominating at the first sampling interval (5 min). […]

[12] = DEX in the same species (rabbit)
[13] = male, New Zealand White, rabbit, plasma, iv, rabbits n = 6, GK-667 5 mg/kg i.v., NCA
[14] = rabbits n = 6, GK-667 5 mg/kg i.v., NCA

Compound: C[C@@H](CN(CC(N)=O)CC(=O)O)N(CC(N)=O)CC(=O)O [ADR-925]
half-life of elimination ([1]; ADR-925 formed in vivo from DEX, rabbit): 2.9 h

Compound: C[C@@H](CN1CC(=O)NC(=O)C1)N1CC(=O)NC(=O)C1 [DEX, dexrazoxane]
clearance [1, 12]: 5 mL/min/kg
elimination half-life [1, 12]: 2.0 h
concentrations with significant protective effects against DAU toxicity [2]: ≥ 10 µM

Compound: C[C@H]([C@H](C)N1CC(=O)N(COC(=O)[C@@H](N)Cc2ccccc2)C(=O)C1)N1CC(=O)N(COC(=O)[C@@H](N)Cc2ccccc2)C(=O)C1 [GK-691, meso-2,3-bis(4-((S)-2-amino-3-phenylpropionyloxymethyl)-3,5-dioxopiperazin-1-yl)butane tetrahydrochloride]
LDH release, statistical significance compared to control [4]: c
lowest concentration with significant protection against DAU-induced toxicity [5]: 3 µM
solubility [6]: ~10 mg/mL

Further lines, with some results ahead:

prodrug degradation in DMEM [3]: fastest degradation
AUC0–3 h of ICRF-193 concentrations ([3]; GK-667 compared with GK-678): no statistically significant differences
solubility [6]: ~20 mg/mL
Compound: C[C@H](N)C(=O)OCN1C(=O)CN([C@H](C)[C@H](C)N2CC(=O)N(COC(=O)[C@H](C)N)C(=O)C2)CC1=O [GK-678, meso-2,3-bis(4-((S)-2-aminopropionyloxymethyl)-3,5-dioxopiperazin-1-yl)butane tetrahydrochloride]
LDH release, statistical significance compared to control [4]: n.s.
lowest concentration with significant protection against DAU-induced toxicity [5]: 3 µM

half-life ([7]; male, New Zealand White, rabbit, plasma, iv, 5 mg/kg): 1.4 h
Cmax ([7]; male, New Zealand White, rabbit, plasma, iv, 5 mg/kg, rabbits n = 6, GK-667 5 mg/kg i.v., NCA): 800 nM
AUC [7, 13]: 2.7 µM·h
AUC(0-t) [7, 13]: 2.6 µM·h
MRT [7, 13]: 2.6 h
k el ([7]; male, New Zealand White, rabbit, plasma, iv, rabbits n = 6, GK-667 5 mg/kg i.v., NCA, read-out: λz (converted)): 0.000144 s⁻¹
Tmax ([7]; male, New Zealand White, rabbit, plasma, iv, rabbits, GK-667 5 mg/kg i.v., read-out: median tmax): 2 h
AUMClast [7, 14]: 6.5 h^2∙µM
AUMCtot [7, 14]: 7.1 h^2∙µM
Cmax [7, 14]: 830 nM
Tmax [7, 14]: 2 h
stability in untreated plasma at laboratory temperature [8]: stable
percentage of initial concentration in autosampler ([9]; extracted DMEM, 100 µM, 0 h): 101.5%
percentage of initial concentration in autosampler ([9]; extracted DMEM, 100 µM, 8 h): 102.1%
percentage of initial concentration in autosampler ([9]; extracted DMEM, 100 µM, 10 h): 102.7%
percentage of initial concentration in autosampler ([9]; extracted NVCMs, 100 pmol/106 cells, 0 h): 100.0%
percentage of initial concentration in autosampler ([9]; extracted NVCMs, 100 pmol/106 cells, 8 h): 97.7%
percentage of initial concentration in autosampler ([9]; extracted NVCMs, 100 pmol/106 cells, 10 h): 95.0%
percentage of initial concentration in autosampler ([9]; extracted buffer, 100 µM, 0 h): 102.3%
percentage of initial concentration in autosampler ([9]; extracted buffer, 100 µM, 8 h): 102.0%
percentage of initial concentration in autosampler ([9]; extracted plasma, 100 µM, 0 h): 100.4%
percentage of initial concentration in autosampler ([9]; extracted plasma, 100 µM, 8 h): 96.5%
percentage of initial concentration in autosampler ([9]; extracted plasma, 100 µM, 10 h): 99.1%
degradation in plasma on storage ([10]; -80 °C for 1 month): no significant degradation
% of initial concentration, 1st freeze-thaw cycle ([10]; initial concentration 0.05 µM): 94.1 ± 4.3%
% of initial concentration, 2nd freeze-thaw cycle ([10]; initial concentration 0.05 µM): 91.7 ± 0.7%
% of initial concentration, 1st freeze-thaw cycle ([10]; initial concentration 1.00 µM): 93.9 ± 5.7%
% of initial concentration, 2nd freeze-thaw cycle ([10]; initial concentration 1.00 µM): 91.4 ± 7.0%
solubility (in words) ([6]; reason why it was not administered separately): poor solubility
V4 ([11]; distribution volume for ICRF-193met): 0.31 L/kg
CLICRF-193met ([11]; total clearance of ICRF-193met): 2.83 mL/min/kg
Compound: C[C@H]([C@H](C)N(CC(N)=O)CC(=O)O)N(CC(N)=O)CC(=O)O [ICRF-193met]
